# In US6107316A, “Method for treating protozoal infections” (priority 1998, dated 2000):
# Legend:
# [1] = toxicity towards MDBKF5D2 host cells (MTS); conditions: bovine, mdbkf5d2 cells, Cytotoxicity (percent toxicity)
# Description: Compounds were tested for in vitro growth inhibitory activity against C. parvum grown in host MDBKF5D2 cells and for toxicity towards the host cells as follows. […] To test for toxicity towards the host cells, the media containing test compound (200 μl) were introduced into two wells of a 96 well microtiter plate containing confluent MDBKF5D2 cell monolayers and two wells without monolayers, and incubated at 37° C. in an 8% carbon dioxide environment. After 48 hours, the tetrazolium salt MTS (Owen's solution) and phenazine methosulfate were added to each well at concentrations of 333 μg/ml and 25 μM, respectively. The plate was returned to the incubator in the dark to develop for 2 hours, then 100 μl of each supernatant was transferred to a new microtiter plate and read spectrophotometrically in a plate reader at a wavelength of 490 nm. Percent toxicity was calculated by subtracting the mean optical density (OD) of the drug supernatants from the OD of medium control supernatants (no drug), dividing by the OD of the medium control, and multiplying by 100. To test for growth inhibitory activity against C. parvum, 3×10^4 oocysts per well were incubated in mentioned concentrations of each drug at 37° C. (8% CO2) on confluent MDBKF5D2 cell monolayers in 96 well microtiter plates. After 48 hours, the level of infection in each well was determined by means of an immunofluorescence assay. Percent inhibition of growth was calculated by subtracting the mean parasite count in the wells containing test compound from the mean parasite count in the medium control wells (no test compound), dividing by the mean parasite count in the medium control wells, and multiplying by 100. Paromomycin was included in the test as a standard.
# [2] = system: Encephalitozoon (Septata) intestinalis; assay: growth inhibitory activity against E. intestinalis grown on Vero cells (spore count); type: cell-based; conditions: 336 h, 1.0 μg/ml, spore number after 2 weeks, read-out: Growth (% of control)
# Description: Compounds 2, 10 and 15 were tested for i,7 vitro growth inhibitory activity against E. intestinalis, grown on African green monkey kidney cells (Vero cells). Vero cells were grown in 25-cm^2 culture flasks at 37° C. in a humidified 5% carbon dioxide incubator. Cultures were maintained in minimal essential medium (Gibco BRL, Gaithersburg, Md., U.S.A.), supplemented with L-glutamine, Earle's salts, 5% heat-inactivated foetal calf serum (Hyclone Labs, Inc., U.S.A.), fungizone (2 μg/ml, Gibco BRL) and gentamicin (50 μg/ml, Gibco BRL). E. intestinalis spores were collected from the supernatant of an infected Vero cell culture and were used to infect normal cells to produce a fresh spore preparation for growth inhibition tests.
# Growth inhibition tests were performed in 24-well culture plates. One ml of Vero cells (5×10^4 cells per ml) was placed in each well and the cells incubated for 12-15 hours at 37° C. The supernatant medium was then removed and replaced with 1 ml of medium containing 1.5-2.0×10^4 E. intestinalis spores per ml along with 1 μl of test compound dissolved in dimethylsulfoxide (DMSO) or DMSO alone for the control treatments without test compound. The plates were incubated at 37° C. and the medium was changed every 72 h along with fresh test compound in DMSO or DMSO alone (controls). After 2 weeks the supernatant was transferred from each well to a microcentiifuge tube, then concentrated by centrifugation with resuspension of the resulting E. intestinalis spore pellet in 300-500 μl fresh medium. The spore number in each sample was then determined by counting in a hemocytometer. The results in Table 11 show the effects of the test compounds on the number of spores and are expressed as a percentage of the spore number in the control treatment without test compound.
Compound,"cytotoxicity at 48 h, 0.1 µM [1] [%]","cytotoxicity at 48 h, 1 µM [1] [%]","cytotoxicity at 48 h, 10 µM [1] [%]","cytotoxicity at 48 h, 100 µM [1] [%]",activity at 1 µg/mL [2] [%]
CCC(C)(NC(=O)c1cc(Cl)c(N)c(Cl)c1)C(=O)CCl (stereo not drawn) [Compound 1],0,0,19.9,35.7,–
CCC(C)(NC(=O)c1cc(Cl)c(F)c(Cl)c1)C(=O)CCl (stereo not drawn) [Compound 9],6.7,0,0,81.4,–
CCC(C)(NC(=O)c1cc(Cl)c(C)c(Cl)c1)C(=O)CCl (stereo not drawn) [Compound 10],–,–,–,–,20
